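These data come from cells grown in 96-well plates and exposed to compound for 48 hours at five concentrations. The concentration for full growth arrest is given as TGI.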
Key:
Assay in all cases: inhibition of tumour cell growth, NCI panel, 48 h
[1] = tested on: HOP-62 NSCLC
[2] = tested on: IGROV1 ovarian
[3] = tested on: DU-145 prostate
[4] = tested on: UO-31 renal
[5] = tested on: OVCAR-5 ovarian
[6] = tested on: SF-539 CNS
[7] = tested on: NCI-H226 lung
[8] = tested on: MALME-3M melanoma
[9] = tested on: MDA-MB-231 breast
[10] = tested on: HL-60(TB) leukemia
[11] = tested on: 786-0 renal
[12] = tested on: HCT-15 colon
[13] = tested on: SNB-19 CNS
[14] = tested on: T-47D breast
[15] = tested on: ACHN renal
[16] = tested on: CAKI-1 renal
[17] = tested on: RXF 393 renal
[18] = tested on: NCI-H522 lung
[19] = tested on: HCC-2998 colon
[20] = tested on: NCI/ADR-RES ovarian
[21] = tested on: HCT-116 colon
[22] = tested on: SN12C renal
[23] = tested on: HS 578T breast
[24] = tested on: OVCAR-8 ovarian
[25] = tested on: SNB-75 CNS
[26] = tested on: SF-268 CNS
[27] = tested on: SW-620 colon
[28] = tested on: M14 melanoma
[29] = tested on: A498 renal
[30] = tested on: HOP-92 NSCLC
[31] = tested on: SK-MEL-2 melanoma
[32] = tested on: MDA-MB-435
[33] = tested on: SK-MEL-28 melanoma
[34] = tested on: RPMI-8226 leukemia
[35] = tested on: PC-3 prostate
[36] = tested on: NCI-H23 lung
[37] = tested on: HT29 colon
[38] = tested on: MDA-N
[39] = tested on: TK-10 renal
[40] = tested on: UACC-62 melanoma
[41] = tested on: BT-549 breast
[42] = tested on: LOX IMVI melanoma
[43] = tested on: SF-295 CNS
[44] = tested on: EKVX NSCLC
[45] = tested on: KM12 colon
[46] = tested on: MCF7 breast
[47] = tested on: SK-MEL-5 melanoma
[48] = tested on: UACC-257 melanoma
[49] = tested on: SK-OV-3 ovarian
[50] = tested on: A549 NSCLC
[51] = tested on: NCI-H460 lung
[52] = tested on: OVCAR-4 ovarian
[53] = tested on: COLO 205 colon
[54] = tested on: MOLT-4 leukemia
[55] = tested on: K-562 leukemia
[56] = tested on: U251 CNS
[57] = tested on: SR leukemia
[58] = tested on: OVCAR-3 ovarian
[59] = tested on: CCRF-CEM leukemia

## CC1=NN(c2nc(N)nc(C(C#N)C(=O)c3cc4c(cc3Cl)Sc3nccn3S4(=O)=O)n2)C(C)(C)C1 (stereo not drawn)
[1]
  TGI: > 100 µM
[2]
  TGI: > 100 µM
[3]
  TGI: 94.4 µM
[4]
  TGI: 67.2 µM
[5]
  TGI: > 100 µM
[6]
  TGI: > 100 µM
[7]
  TGI: 90 µM
[8]
  TGI: 48.5 µM
[9]
  TGI: 55 µM
[10]
  TGI: 61.1 µM
[11]
  TGI: 34 µM
[12]
  TGI: 67.3 µM
[13]
  TGI: > 100 µM
[14]
  TGI: 77.9 µM
[15]
  TGI: > 100 µM
[16]
  TGI: > 100 µM
[17]
  TGI: > 100 µM
[18]
  TGI: 69.7 µM
[19]
  TGI: 33.8 µM
[20]
  TGI: > 100 µM
[21]
  TGI: > 100 µM
[22]
  TGI: > 100 µM
[23]
  TGI: > 100 µM
[24]
  TGI: > 100 µM
[25]
  TGI: > 100 µM
[26]
  TGI: > 100 µM
[27]
  TGI: > 100 µM
[28]
  TGI: > 100 µM
[29]
  TGI: > 100 µM
[30]
  TGI: > 100 µM
[31]
  TGI: 53.7 µM
[32]
  TGI: > 100 µM
[33]
  TGI: > 100 µM
[34]
  TGI: 63.2 µM
[35]
  TGI: > 100 µM
[36]
  TGI: 37.2 µM
[37]
  TGI: > 100 µM
[38]
  TGI: > 100 µM
[39]
  TGI: > 100 µM
[40]
  TGI: 66.9 µM
[41]
  TGI: 98.6 µM
[42]
  TGI: > 100 µM
[43]
  TGI: > 100 µM
[44]
  TGI: > 100 µM
[45]
  TGI: > 100 µM
[46]
  TGI: > 100 µM
[47]
  TGI: 48.1 µM
[48]
  TGI: 48.5 µM
[49]
  TGI: 51.4 µM
[50]
  TGI: > 100 µM
[51]
  TGI: > 100 µM
[52]
  TGI: > 100 µM
[53]
  TGI: > 100 µM
[54]
  TGI: 68.2 µM
[55]
  TGI: > 100 µM
[56]
  TGI: > 100 µM
[57]
  TGI: 25 µM
[58]
  TGI: 57 µM
[59]
  TGI: 50.3 µM

## Cc1cc2[nH]c(Cl)c(/C=C3\C(=O)Nc4ccccc43)c2cc1O
[1]
  TGI: 25.9 µM
[2]
  TGI: 10.9 µM
[3]
  TGI: 12.9 µM
[4]
  TGI: 17.8 µM
[5]
  TGI: 20.1 µM
[6]
  TGI: 4.6 µM
[7]
  TGI: 4.31 µM
[8]
  TGI: 16.3 µM
[9]
  TGI: 15.9 µM
[10]
  TGI: 6.16 µM
[11]
  TGI: > 37.8 µM
[12]
  TGI: 23.3 µM
[13]
  TGI: 17.2 µM
[14]
  TGI: > 56.9 µM
[15]
  TGI: 21.6 µM
[16]
  TGI: 19.7 µM
[17]
  TGI: 9.66 µM
[18]
  TGI: 4.66 µM
[19]
  TGI: 16 µM
[20]
  TGI: > 48.9 µM
[21]
  TGI: > 36.7 µM
[22]
  TGI: 12.2 µM
[23]
  TGI: > 100 µM
[24]
  TGI: 25.8 µM
[25]
  TGI: 16.5 µM
[26]
  TGI: 18.2 µM
[27]
  TGI: 30.7 µM
[28]
  TGI: 17 µM
[29]
  TGI: 16.1 µM
[30]
  TGI: 22.8 µM
[31]
  TGI: 12.9 µM
[32]
  TGI: 1.18 µM
[33]
  TGI: 24.2 µM
[34]
  TGI: 9.95 µM
[35]
  TGI: 12.8 µM
[36]
  TGI: 10.5 µM
[37]
  TGI: 19.5 µM
[38]
  TGI: 1.97 µM
[39]
  TGI: 23.5 µM
[40]
  TGI: 9.08 µM
[41]
  TGI: 25 µM
[42]
  TGI: 40 µM
[43]
  TGI: 11.3 µM
[44]
  TGI: 18 µM
[45]
  TGI: 17.1 µM
[46]
  TGI: 16.5 µM
[47]
  TGI: 12.3 µM
[48]
  TGI: 23.6 µM
[49]
  TGI: 19 µM
[50]
  TGI: 21.6 µM
[51]
  TGI: 15 µM
[52]
  TGI: 25.9 µM
[53]
  TGI: 30.1 µM
[54]
  TGI: 32.9 µM
[55]
  TGI: 18.8 µM
[56]
  TGI: 14.4 µM
[57]
  TGI: 4.17 µM
[58]
  TGI: 26.7 µM
[59]
  TGI: 9.32 µM
